{
  "source": "patent US7897645B2",
  "about": "“Herpesvirus-derived therapeutic agent for pain” (Taiho Pharmaceutical Co., Ltd., priority 2005, dated 2011)",
  "key": {"post herpetic neuralgia [1]": {"test_system": "post herpetic neuralgia", "assay": "Clinical course of zoster-associated pain in patients, in words (case reports)", "type": "in vivo, human", "conditions": "for effect on continued pain after herpes zoster: Example 6: person, diclofenac sodium suppository 1 to 2 times per day in addition to morphine hydrochloride 30 mg/day", "experimental": "A person. They were diagnosed as right face herpes zoster. Anti-virus agent was administered by drops for 5 days. Since dull pain remained at the same region thereafter, oral administration of mecobalamin of 1500 μg/day and sodium loxoprofen of 180 mg/day was started after the consultation. After administration for 2 weeks, VAS evaluation of pain dropped to 1 point, and the administration of sodium loxoprofen stopped with administration of mecobalamin maintained. Mecobalamin was further administered, and although VAS evaluations were 1 to 3 points for about 3 months, sense of incongruity and spasmodic sharp pain of neuralgia after herpes zoster continued, and therefore oral administration of a 100 mg capsule of IPD 3 times per day was started in the same manner as in Example 1 with administration of mecobalamin maintained. After 1 week of the administration of suplatast tosylate, the post herpetic neuralgia disappeared, and VAS evaluation became 0 point. […] Then administration was stopped.\nA person. Painful rashes appeared from right chest to the back, and they were diagnosed as herpes zoster. Anti-virus agent was administered by dropping for 1 week, but the pain continued. Diclofenac sodium suppository was used by 1 to 2 times per day in addition to administration of morphine hydrochloride 30 mg/day, but both of them were no effect, and further nerve block treatment was also no effect. After 6 months of the consultation (7 points at VAS evaluation), oral administration of a 100 mg capsule of IPD 3 times per day was started in the same manner as in Example 1, the post herpetic neuralgia decreased to 5 points at VAS evaluation by the treatment for 3 weeks, although the administration of morphine was invalid."}, "post herpetic neuralgia [2]": {"test_system": "post herpetic neuralgia", "assay": "Visual Analogue Scale (VAS) evaluation of pain in herpes zoster / post herpetic neuralgia patients (case reports)", "type": "in vivo, human", "conditions": "for VAS evaluation of pain: mecobalamin 1500 μg/day and sodium loxoprofen 180 mg/day oral together, after 2 weeks", "experimental": "The present invention will be described below in more detail with reference to examples and test examples. However, the invention is not limited by these examples. The sharp pain in examples was evaluated by the Visual Analogue Scale evaluation (hereinafter abbreviated to “VAS evaluation”), in which the grade of pain of each patient is expressed by himself or herself on a 100 mm straight line. In VAS evaluation, the highest score is 10 points (100 mm), and the point becomes smaller according to the decrease of the pain. (refer to Anesth Analog 1993, 77, 1041-1047 etc.)"}},
  "data": [
    {"smiles": "CN1CC[C@]23c4c5ccc(O)c4O[C@H]2[C@@H](O)C=C[C@H]3[C@H]1C5.Cl", "note": "[morphine hydrochloride]", "values": [
      {"measurement": "effect on continued pain after herpes zoster", "setting": "post herpetic neuralgia [1]", "result": "no effect"}
    ]},
    {"smiles": "CCOCC(O)COc1ccc(NC(=O)CC[S+](C)C)cc1.Cc1ccc(S(=O)(=O)[O-])cc1", "note": "(racemic) [suplatast tosylate, (±)-[2-[4-(3-ethoxy-2-hydroxypropoxy)phenylcarbamoyl]ethyl]dimethylsulfonium p-toluenesulfonate]", "values": [
      {"measurement": "VAS evaluation", "setting": "post herpetic neuralgia [2]; Example 1: person, PHN, 100 mg capsule of IPD 3 times per day oral, after 3 days, 5 points before", "result": 0, "unit": "point"},
      {"measurement": "VAS evaluation", "setting": "post herpetic neuralgia [2]; Example 2: person, PHN, 100 mg capsule of IPD 3 times per day oral, after 1.5 months, 7 points before", "result": 2, "unit": "points"},
      {"measurement": "VAS evaluation", "setting": "post herpetic neuralgia [2]; Example 3: person, PHN, 100 mg capsule of IPD 3 times per day oral, mecobalamin maintained, after 1 week, 1 to 3 points before", "result": 0, "unit": "point"},
      {"measurement": "VAS evaluation", "setting": "post herpetic neuralgia [2]; Example 4: person, PHN, 100 mg capsule of IPD 3 times per day oral, after 1 month, 0.5 to 1 point before", "result": "0.1 to 0.2", "unit": "point"},
      {"measurement": "VAS evaluation", "setting": "post herpetic neuralgia [2]; Example 5: person, PHN, 100 mg capsule of IPD 3 times per day oral, by continuation of the administration", "result": 0.7, "unit": "point"},
      {"measurement": "VAS evaluation", "setting": "post herpetic neuralgia [2]; Example 5: person, PHN, 100 mg capsule of IPD 3 times per day oral, first decrease, 5 points before", "result": 1, "unit": "point"},
      {"measurement": "VAS evaluation", "setting": "post herpetic neuralgia [2]; Example 6: person, PHN, 100 mg capsule of IPD 3 times per day oral, treatment for 3 weeks, 7 points before", "result": 5, "unit": "points"},
      {"measurement": "symptoms on continued administration", "setting": "post herpetic neuralgia [1]; Example 3: person, oral suplatast tosylate and mecobalamin continued for further about 1 month", "result": "no symptom was observed"}
    ]},
    {"smiles": "O=C(O)Cc1ccccc1Nc1c(Cl)cccc1Cl", "note": "[Diclofenac sodium]", "values": [
      {"measurement": "effect on continued pain after herpes zoster", "setting": "post herpetic neuralgia [1]", "result": "no effect"}
    ]},
    {"smiles": "CC(C(=O)[O-])c1ccc(CC2CCCC2=O)cc1.[Na+]", "note": "(stereo not shown) [sodium loxoprofen]", "values": [
      {"measurement": "VAS evaluation of pain", "setting": "post herpetic neuralgia [2]; Example 3: person", "result": 1, "unit": "point"}
    ]},
    {"smiles": "C/C1=C2/[N-][C@H]([C@H](CC(N)=O)[C@@]2(C)CCC(=O)NC[C@@H](C)OP(=O)([O-])O[C@H]2[C@@H](O)[C@@H](n3cnc4cc(C)c(C)cc43)O[C@@H]2CO)[C@]2(C)N=C(/C(C)=C3N=C(/C=C4N=C1[C@@H](CCC(N)=O)C\\4(C)C)[C@@H](CCC(N)=O)[C@]\\3(C)CC(N)=O)[C@@H](CCC(N)=O)[C@]2(C)CC(N)=O.[CH3-].[Co+3]", "note": "[mecobalamin]", "values": [
      {"measurement": "VAS evaluation", "setting": "post herpetic neuralgia [2]; Example 1: person, mecobalamin 1500 μg/day oral continued, neuralgia not changed for 3 years after consultation", "result": 5, "unit": "points"},
      {"measurement": "VAS evaluation", "setting": "post herpetic neuralgia [2]; Example 2: person, mecobalamin 1500 μg/day continued, PHN did not change for 8 months after consultation", "result": 7, "unit": "points"},
      {"measurement": "VAS evaluation of pain", "setting": "post herpetic neuralgia [2]; Example 3: person", "result": 1, "unit": "point"},
      {"measurement": "VAS evaluations", "setting": "post herpetic neuralgia [2]; Example 3: person, mecobalamin alone further administered, for about 3 months", "result": "1 to 3", "unit": "points"},
      {"measurement": "VAS evaluation", "setting": "post herpetic neuralgia [2]; Example 4: person, mecobalamin 1500 μg/day for 1.5 months, 5 points before", "result": "0.5 to 1", "unit": "point"}
    ]}
  ]
}
